pIC50: −log10 of the molar value. The source made the active and inactive calls. The calls are words filed in the database; no cut-off is given here.
What was measured:
[1] = system: Human alphaherpesvirus 1; assay: Antiviral activity against ACV-resistant HSV1 153 infected in African green monkey Vero cells assessed as reduction of virus-induced cytopathic effect measured after 48 hrs of incubation; type: functional, organism-based; conditions: Human alphaherpesvirus 1, 153, Vero
[2] = Selectivity index, ratio of CC50 for Cytotoxicity against african green monkey Vero cells to IC50 for Antiviral activity against HSV1 infected in African green monkey Vero cells; type: toxicity, cell-based; conditions: read-out: Selectivity Index
[3] = system: Human alphaherpesvirus 1; assay: Antiviral activity against HSV1 infected in African green monkey Vero cells assessed as reduction of virus-induced cytopathic effect measured after 48 hrs of incubation; type: functional, organism-based; conditions: Human alphaherpesvirus 1, Vero
[4] = Cytotoxicity against African green monkey Vero cells assessed as cell viability measured after 24 hrs incubation by MTT assay; type: toxicity, cell-based; conditions: chlorocebus sabaeus
[5] = system: Human alphaherpesvirus 1; assay: Antiviral activity against ACV-resistant HSV1 Blue infected in African green monkey Vero cells assessed as reduction of virus-induced cytopathic effect measured after 48 hrs of incubation; type: functional, organism-based; conditions: Human alphaherpesvirus 1, Blue
[6] = system: Human alphaherpesvirus 1; assay: Antiviral activity against HSV1 expressing GFP infected in African green monkey Vero cells assessed as fold reduction in viral titer green fluorescence protein expression measured after 48 hrs post-infection by immunofluorescence based fluorescence microscopy; type: functional
[7] = system: Human alphaherpesvirus 1; assay: Antiviral activity against HSV1 expressing GFP infected in African green monkey Vero cells assessed as fold reduction in viral titer green fluorescence protein expression at 2 uM measured after 48 hrs post-infection by immunofluorescence based fluorescence microscopy; type: functional
[8] = system: Human alphaherpesvirus 1; assay: Antiviral activity against HSV1 infected in African green monkey Vero cells assessed as reduction of virus yield at 2 uM treated for 0 to 14 hrs of post-infection; type: functional, organism-based; conditions: time 0-14 hrs
[9] = system: Vero; assay: Suppression of phosphorylation of RNA polymerase at serine 2 C-terminal domain in HSV1 infected African green monkey Vero cells at 0.25 to 2 uM measured after 12 hrs incubation by Western blot analysis; type: cell-based; conditions: Human alphaherpesvirus 1, dose 0.25-2 µM
[10] = system: Vero; assay: Inhibition of CDK7/Cyclin T1 in African green monkey Vero cells infected with HSV1 assessed as catalytic hydrolysis of ATP measured after 12 hrs by Western blot analysis; type: cell-based; conditions: Chlorocebus aethiops
[11] = system: Vero; assay: Inhibition of CDK9/Cyclin T1 in African green monkey Vero cells infected with HSV1 assessed as catalytic hydrolysis of ATP measured after 12 hrs by Western blot analysis; type: cell-based; conditions: Chlorocebus aethiops
[12] = system: Human alphaherpesvirus 2; assay: Antiviral activity against HSV2 infected in African green monkey Vero cells assessed as reduction of virus-induced cytopathic effect measured after 48 hrs of incubation; type: functional, organism-based; conditions: Human alphaherpesvirus 2, Vero
[13] = system: Human alphaherpesvirus 1; assay: Antiviral activity against HSV1 expressing GFP infected in African green monkey Vero cells assessed as reduction in green fluorescence protein expression at 1 uM measured after 24 hrs post-infection by immunofluorescence based fluorescence microscopy; type: functional, organism-based
[14] = system: Human alphaherpesvirus 1; assay: In vivo antiviral activity against HSV1 infected in BALB/c mouse right ear by scratch assessed as increase in body weight at 10 to 20 mg/kg, applied topically measured for 5 to 9 days post-infection relative to control; type: functional, organism-based; conditions: dose 10-20 mg/kg, time 5-9 day
[15] = system: Human alphaherpesvirus 1; assay: In vivo antiviral activity against HSV1 infected in BALB/c mouse right ear by scratch assessed as reduction in skin lesions at 10 to 20 mg/kg, applied topically measured for 5 to 9 days post-infection; type: functional, organism-based; conditions: dose 10-20 mg/kg, time 5-9 day
[16] = system: Human alphaherpesvirus 1; assay: In vivo antiviral activity against HSV1 infected in BALB/c mouse right ear by scratch assessed as reduction in gD glycoprotein level at 10 to 20 mg/kg, applied topically measured for 5 to 9 days post-infection; type: functional, organism-based; conditions: dose 10-20 mg/kg, time 5-9 day
[17] = system: Vero; assay: Suppression of phosphorylation of RNA polymerase at serine 5 C-terminal domain in HSV1 infected African green monkey Vero cells measured after 12 hrs incubation by Western blot analysis; type: cell-based; conditions: Human alphaherpesvirus 1, dose 0.25-2 µM
[18] = Toxicity in BALB/c mouse assessed as toxic side effects at 10 to 20 mg/kg, applied topically measured for 5 to 9 days post-infection; type: organism-based; conditions: in vivo, topical_or_ocular, dose lower 10 mg/kg, time lower 5 day, dose upper 20 mg/kg, time upper 9 day
[19] = system: Human alphaherpesvirus 1; assay: Antiviral activity against HSV1 infected in African green monkey Vero cells assessed as inhibition of transcription by measuring viral gene level at 0.25 to 2 uM by RT-PCR analysis relative to control; type: functional, organism-based; conditions: dose 0.25-2 µM
[20] = system: Human alphaherpesvirus 1; assay: In vivo antiviral activity against HSV1 infected in BALB/c mouse right ear by scratch assessed as reduction in ear thickness at 10 to 20 mg/kg, applied topically measured for 5 to 9 days post-infection; type: functional, organism-based; conditions: dose 10-20 mg/kg, time 5-9 day
[21] = system: Human alphaherpesvirus 1; assay: In vivo antiviral activity against HSV1 infected in BALB/c mouse right ear by scratch assessed as reduction in viral titer in ear tissue homogenate at 10 to 20 mg/kg, applied topically measured for 5 to 9 days post-infection; type: functional, organism-based; conditions: dose 10-20 mg/kg, time 5-9 day
[22] = system: Human alphaherpesvirus 1; assay: Antiviral activity against HSV1 expressing GFP infected in African green monkey Vero cells assessed as suppression of infection at 50 times of IC50 concentration measured after 48 hrs post-infection; type: functional, organism-based
[23] = system: Human alphaherpesvirus 1; assay: Antiviral activity against HSV1 infected in African green monkey Vero cells assessed as inhibition of virus replication at 2 uM treated 8 hrs of post-infection; type: functional, organism-based

| Structure (SMILES) | pIC50 [1] | selectivity ratio [2] | pIC50 [3] | CC50 at 24 h [4] [nM] | pIC50 [5] | further results |
| --- | --- | --- | --- | --- | --- | --- |
| CC(C)CC(=O)c1c(O)cc2c(c1O)C(C1CCC1)C1=C(O2)C(C)(C)C(=O)C(C)(C)C1=O (centres undefined) | 6.40 | 10 | 6.30 | 5000 | 6.30 | – |
| CC(C)CC(=O)c1c(O)c(Cl)c2c(c1O)C(CC(C)C)C1=C(O2)C(C)(C)C(=O)C(C)(C)C1=O (centres undefined) | 6.40 | 35 | 6.40 | 14000 | 6.52 | Activity [6]: Dose-dependent-effect; fold change (FC) [7]: 3549 |
| CC(C)CC(=O)c1c(O)cc2c(c1O)C(C1CCCCC1)C1=C(O2)C(C)(C)C(=O)C(C)(C)C1=O (centres undefined) | 6.30 | 12.5 | 6.10 | 10000 | 6.30 | – |
| CC(C)CC1C2=C(Oc3cc(O)c(C(=O)C4CCCC4)c(O)c31)C(C)(C)C(=O)C(C)(C)C2=O (centres undefined) | 6.52 | 15.5 | 6.24 | 9000 | 6.52 | – |
| CC(C)CC(=O)c1c(O)cc2c(c1O)[C@@H](CC(C)C)C1=C(O2)C(C)(C)[C@@H](O)C(C)(C)C1=O | – | < 6.67 | 5.43 | 10000 | – | Activity [8]: Active |
| CC(C)(C)c1cnc(CSc2cnc(NC(=O)C3CCNCC3)s2)o1 | – | – | – | – | – | Activity [9]: Active; Activity [10]: Active; Activity [11]: Active |
| CCCC1C2=C(Oc3cc(O)c(C(=O)CC(C)C)c(O)c31)C(C)(C)C(=O)C(C)(C)C2=O (centres undefined) | 6.30 | 18 | 6.30 | 9000 | 6.52 | – |
| CC(C)CC1C2=C(Oc3cc(O)c(C(=O)C4CCC4)c(O)c31)C(C)(C)C(=O)C(C)(C)C2=O (centres undefined) | 6.52 | 26 | 6.30 | 13000 | 6.60 | Activity [6]: Dose-dependent-effect; fold change (FC) [7]: 1867; Activity [8]: Active |
| CC(C)CC(=O)c1c(O)cc2c(c1O)C(CC(C)C)C1=C(O2)C(C)(C)C(=O)C(C)(C)C1=O (racemic) | 6.52 | 17.9 | 6.41 | 7000 | 6.52 | pIC50 [12]: 6.46; Activity [13]: Active; Activity [14]: Active; Activity [15]: Active; Activity [9]: Active; Compound Showed Only Slight Inhibition; Activity [16]: Active; fold change (FC) [6]: 3943; Activity [17]: Dose-dependent-effect; Activity [18]: Non-toxic; Activity [10]: inactive; Activity [7]: Active; Activity [8]: Active; Activity [19]: Active; Activity [20]: Active; Activity [21]: Active |
| CC(C)CC1C2=C(Oc3cc(O)c(C(=O)C4CCCCC4)c(O)c31)C(C)(C)C(=O)C(C)(C)C2=O (centres undefined) | 6.52 | 35 | 6.70 | 7000 | 6.60 | – |
| Nc1nc2c(ncn2COCCO)c(=O)[nH]1 [ACYCLOVIR] | < 4.00 | > 80 | 5.92 | > 100000 | < 4.00 | Activity [22]: inactive; Activity [23]: Active |
| CC(C)CC1C2=C(Oc3cc(O)c(C(=O)CCc4ccccc4)c(O)c31)C(C)(C)C(=O)C(C)(C)C2=O (centres undefined) | 6.40 | 15.6 | 6.35 | 7000 | 6.70 | – |
| CC(C)CC1C2=C(Oc3cc(O)c(C(=O)CCCCCl)c(O)c31)C(C)(C)C(=O)C(C)(C)C2=O (centres undefined) | 6.30 | 16 | 6.35 | 8000 | 6.22 | – |
| CC(C)CC(=O)c1c(O)cc2c(c1O)C(C1CCCC1)C1=C(O2)C(C)(C)C(=O)C(C)(C)C1=O (centres undefined) | 6.30 | 11.4 | 6.15 | 8000 | 6.30 | – |
| CC(=O)Oc1cc2c(c(OC(C)=O)c1C(=O)CC(C)C)C(CC(C)C)C1=C(O2)C(C)(C)C(=O)C(C)(C)C1=O (centres undefined) | 6.40 | 14 | 6.30 | 7000 | 6.52 | – |
